From publication PMC4904262 (ACS Medicinal Chemistry Letters, 2016)

How the values were obtained:
EPHB1 = EPHB1 (Homo sapiens, UniProt P54762); conditions: 1 µM, ATP at Km
PI3K GAMMA = PI3K GAMMA (Homo sapiens, UniProt P48736); conditions: 1 µM, ATP at Km
HCK = HCK (Homo sapiens, UniProt P08631); conditions: HCK (first listing, page 8); 1 µM; ATP at Km
MRCKALPHA = MRCKALPHA (Homo sapiens, UniProt Q5VT25); conditions: 1 µM, ATP at Km
MLK1 = MLK1 (Homo sapiens, UniProt P80192); conditions: 1 µM, ATP at Km
MINK = MINK (Homo sapiens, UniProt Q8N4C8); conditions: 1 µM, ATP at Km
PIM-1 = PIM-1 (Homo sapiens, UniProt P11309); conditions: 1 µM, ATP at Km
CDK1/CYCLINB = CDK1/CYCLINB (Homo sapiens, UniProt P06493); conditions: 1 µM, ATP at Km
VRK2 = VRK2 (Homo sapiens, UniProt Q86Y07); conditions: 1 µM, ATP at Km
ALK = ALK (Homo sapiens, UniProt Q9UM73); conditions: 1 µM, ATP at Km
CK1GAMMA3 = CK1GAMMA3 (Homo sapiens, UniProt Q9Y6M4); conditions: 1 µM, ATP at Km
MSK1 = MSK1 (Homo sapiens, UniProt O75582); conditions: 1 µM, ATP at Km
LOK = LOK (Homo sapiens, UniProt O94804); conditions: 1 µM, ATP at Km
PKCBII = PKCBII (Homo sapiens, UniProt P05771); conditions: 1 µM, ATP at Km
SGK = SGK (Homo sapiens, UniProt O00141); conditions: 1 µM, ATP at Km
CDK3/CYCLINE = CDK3/CYCLINE (Homo sapiens, UniProt Q00526); conditions: 1 µM, ATP at Km
BRK = BRK (Homo sapiens, UniProt Q13882); conditions: 1 µM, ATP at Km
PASK = PASK (Homo sapiens, UniProt Q96RG2); conditions: 1 µM, ATP at Km
HASPIN = HASPIN (Homo sapiens, UniProt Q8TF76); conditions: 1 µM, ATP at Km
TSSK1 = TSSK1 (Homo sapiens, UniProt Q9BXA7); conditions: 1 µM, ATP at Km
FGFR3 = FGFR3 (Homo sapiens, UniProt P22607); conditions: 1 µM, ATP at Km
ARK5 = ARK5 (Homo sapiens, UniProt O60285); conditions: 1 µM, ATP at Km
PKBALPHA = PKBALPHA (Homo sapiens, UniProt P31749); conditions: 1 µM, ATP at Km
CK2ALPHA2 = CK2ALPHA2 (Homo sapiens, UniProt P19784); conditions: 1 µM, ATP at Km
SIK = SIK (Homo sapiens, UniProt P57059); conditions: 1 µM, ATP at Km
MST2 = MST2 (Homo sapiens, UniProt Q13188); conditions: 1 µM, ATP at Km
IGF-1R, ACTIVATED = IGF-1R, ACTIVATED (Homo sapiens, UniProt P08069); conditions: 1 µM, ATP at Km
ROS = ROS (Homo sapiens, UniProt P08922); conditions: 1 µM, ATP at Km
WNK2 = WNK2 (Homo sapiens, UniProt Q9Y3S1); conditions: 1 µM, ATP at Km
PKCETA = PKCETA (Homo sapiens, UniProt P24723); conditions: 1 µM, ATP at Km
NEK7 = NEK7 (Homo sapiens, UniProt Q8TDX7); conditions: 1 µM, ATP at Km
JNK3 = JNK3 (Homo sapiens, UniProt P53779); conditions: 1 µM, ATP at Km
DMPK = DMPK (Homo sapiens, UniProt Q09013); conditions: 1 µM, ATP at Km
PDK1 = PDK1 (Homo sapiens, UniProt O15530); conditions: 1 µM, ATP at Km
LCK = LCK (Homo sapiens, UniProt P06239); conditions: LCK (first listing, page 9); 1 µM; ATP at Km
DAPK2 = DAPK2 (Homo sapiens, UniProt Q9UIK4); conditions: 1 µM, ATP at Km
MTOR = MTOR (Homo sapiens, UniProt P42345); conditions: 1 µM, ATP at Km
CRAF = CRAF (Homo sapiens, UniProt P04049); conditions: 1 µM, ATP at Km
IRAK4 = IRAK4 (Homo sapiens, UniProt Q9NWZ3); conditions: 1 µM, ATP at Km
RSE = RSE (Homo sapiens, UniProt Q06418); conditions: 1 µM, ATP at Km
LYN = LYN (Homo sapiens, UniProt P07948); conditions: 1 µM, ATP at Km
ACK1 = ACK1 (Homo sapiens, UniProt Q07912); conditions: 1 µM, ATP at Km
DCAMKL2 = DCAMKL2 (Homo sapiens, UniProt Q8N568); conditions: 1 µM, ATP at Km
CDK5/P25 = CDK5/P25 (Homo sapiens, UniProt Q00535); conditions: 1 µM, ATP at Km

Sequence of EPHB1 (P54762 18-984): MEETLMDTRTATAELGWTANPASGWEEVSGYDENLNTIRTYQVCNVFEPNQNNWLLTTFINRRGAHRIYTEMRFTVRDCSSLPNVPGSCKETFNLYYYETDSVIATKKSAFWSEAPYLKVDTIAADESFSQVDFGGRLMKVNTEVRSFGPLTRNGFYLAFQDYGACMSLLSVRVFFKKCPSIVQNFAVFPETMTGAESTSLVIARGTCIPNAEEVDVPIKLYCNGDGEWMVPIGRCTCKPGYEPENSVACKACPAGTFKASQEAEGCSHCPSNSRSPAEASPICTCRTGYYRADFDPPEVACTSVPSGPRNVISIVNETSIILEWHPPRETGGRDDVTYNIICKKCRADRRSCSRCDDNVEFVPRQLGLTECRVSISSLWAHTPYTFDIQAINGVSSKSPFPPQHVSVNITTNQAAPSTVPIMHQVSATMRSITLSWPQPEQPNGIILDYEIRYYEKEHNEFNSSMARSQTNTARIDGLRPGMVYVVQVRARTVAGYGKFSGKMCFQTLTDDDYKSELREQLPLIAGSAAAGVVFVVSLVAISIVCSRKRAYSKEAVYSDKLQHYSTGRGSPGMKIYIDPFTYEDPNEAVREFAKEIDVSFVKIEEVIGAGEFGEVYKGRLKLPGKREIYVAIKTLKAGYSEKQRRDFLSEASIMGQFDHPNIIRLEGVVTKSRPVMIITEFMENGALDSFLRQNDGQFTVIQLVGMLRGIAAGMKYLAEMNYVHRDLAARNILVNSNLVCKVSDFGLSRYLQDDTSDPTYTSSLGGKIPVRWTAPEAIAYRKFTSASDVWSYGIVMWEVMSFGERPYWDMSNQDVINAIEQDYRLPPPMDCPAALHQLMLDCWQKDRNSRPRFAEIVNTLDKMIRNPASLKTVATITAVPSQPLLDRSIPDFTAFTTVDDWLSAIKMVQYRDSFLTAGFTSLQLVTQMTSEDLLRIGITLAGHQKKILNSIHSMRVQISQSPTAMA
Sequence of PKBALPHA (P31749 whole entry): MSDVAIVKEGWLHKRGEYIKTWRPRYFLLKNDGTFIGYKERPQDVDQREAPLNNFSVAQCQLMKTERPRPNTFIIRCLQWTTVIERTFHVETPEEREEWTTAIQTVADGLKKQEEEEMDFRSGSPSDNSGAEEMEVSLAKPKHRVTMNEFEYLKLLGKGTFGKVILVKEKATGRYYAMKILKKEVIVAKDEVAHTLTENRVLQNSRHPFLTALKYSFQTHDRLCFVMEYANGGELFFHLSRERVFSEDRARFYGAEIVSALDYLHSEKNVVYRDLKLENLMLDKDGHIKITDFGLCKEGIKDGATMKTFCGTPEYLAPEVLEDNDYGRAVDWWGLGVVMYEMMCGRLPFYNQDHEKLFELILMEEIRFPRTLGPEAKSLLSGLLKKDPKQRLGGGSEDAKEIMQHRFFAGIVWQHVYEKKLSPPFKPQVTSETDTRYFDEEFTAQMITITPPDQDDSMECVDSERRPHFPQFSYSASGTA
Sequence of LCK (P06239 whole entry): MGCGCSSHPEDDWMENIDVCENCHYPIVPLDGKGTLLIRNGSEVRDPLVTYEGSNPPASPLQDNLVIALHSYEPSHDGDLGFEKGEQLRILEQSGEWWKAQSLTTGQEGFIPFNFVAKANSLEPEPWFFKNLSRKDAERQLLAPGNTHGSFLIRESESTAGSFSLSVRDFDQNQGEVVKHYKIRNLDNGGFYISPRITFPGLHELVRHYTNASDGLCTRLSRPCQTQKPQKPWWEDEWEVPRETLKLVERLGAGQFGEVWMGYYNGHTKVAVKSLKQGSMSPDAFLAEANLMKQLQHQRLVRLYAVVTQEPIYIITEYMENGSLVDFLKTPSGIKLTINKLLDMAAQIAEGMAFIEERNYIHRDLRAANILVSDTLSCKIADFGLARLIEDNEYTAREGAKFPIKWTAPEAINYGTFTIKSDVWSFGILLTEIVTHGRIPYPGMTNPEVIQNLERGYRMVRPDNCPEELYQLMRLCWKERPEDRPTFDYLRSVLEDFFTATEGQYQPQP
Sequence of MINK (Q8N4C8 whole entry): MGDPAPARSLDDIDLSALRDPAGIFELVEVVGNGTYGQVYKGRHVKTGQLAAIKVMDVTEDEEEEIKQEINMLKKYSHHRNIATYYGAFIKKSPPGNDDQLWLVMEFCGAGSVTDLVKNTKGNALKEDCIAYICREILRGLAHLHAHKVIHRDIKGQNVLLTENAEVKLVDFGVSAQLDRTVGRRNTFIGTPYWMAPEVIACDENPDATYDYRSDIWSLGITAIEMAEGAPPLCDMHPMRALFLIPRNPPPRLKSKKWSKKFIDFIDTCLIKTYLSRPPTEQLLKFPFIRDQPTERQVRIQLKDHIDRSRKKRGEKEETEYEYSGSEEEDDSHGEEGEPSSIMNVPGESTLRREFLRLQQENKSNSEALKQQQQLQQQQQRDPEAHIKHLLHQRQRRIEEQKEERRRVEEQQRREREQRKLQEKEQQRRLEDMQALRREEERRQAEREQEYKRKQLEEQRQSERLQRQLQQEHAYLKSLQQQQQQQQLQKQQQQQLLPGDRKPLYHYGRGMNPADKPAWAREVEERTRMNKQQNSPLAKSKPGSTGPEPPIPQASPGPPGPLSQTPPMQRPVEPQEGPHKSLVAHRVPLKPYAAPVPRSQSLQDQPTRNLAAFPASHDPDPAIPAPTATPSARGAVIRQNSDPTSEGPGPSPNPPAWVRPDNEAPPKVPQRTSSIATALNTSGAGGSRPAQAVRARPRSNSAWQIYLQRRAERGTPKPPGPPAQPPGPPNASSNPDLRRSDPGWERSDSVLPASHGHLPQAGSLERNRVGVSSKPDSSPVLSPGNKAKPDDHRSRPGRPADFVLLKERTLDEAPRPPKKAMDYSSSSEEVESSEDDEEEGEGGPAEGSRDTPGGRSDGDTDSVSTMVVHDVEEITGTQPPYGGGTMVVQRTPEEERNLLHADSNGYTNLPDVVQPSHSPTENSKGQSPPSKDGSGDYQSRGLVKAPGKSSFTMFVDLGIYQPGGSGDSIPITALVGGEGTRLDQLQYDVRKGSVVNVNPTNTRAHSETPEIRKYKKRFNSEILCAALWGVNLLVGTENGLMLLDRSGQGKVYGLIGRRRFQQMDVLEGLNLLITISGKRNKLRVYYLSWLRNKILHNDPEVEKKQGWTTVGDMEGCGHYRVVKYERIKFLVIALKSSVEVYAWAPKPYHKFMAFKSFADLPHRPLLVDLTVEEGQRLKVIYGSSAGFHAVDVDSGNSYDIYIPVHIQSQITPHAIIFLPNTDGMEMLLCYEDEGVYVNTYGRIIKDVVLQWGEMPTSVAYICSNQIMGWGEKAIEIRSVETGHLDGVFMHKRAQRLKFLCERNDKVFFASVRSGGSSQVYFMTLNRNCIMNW
Sequence of DMPK (Q09013 whole entry): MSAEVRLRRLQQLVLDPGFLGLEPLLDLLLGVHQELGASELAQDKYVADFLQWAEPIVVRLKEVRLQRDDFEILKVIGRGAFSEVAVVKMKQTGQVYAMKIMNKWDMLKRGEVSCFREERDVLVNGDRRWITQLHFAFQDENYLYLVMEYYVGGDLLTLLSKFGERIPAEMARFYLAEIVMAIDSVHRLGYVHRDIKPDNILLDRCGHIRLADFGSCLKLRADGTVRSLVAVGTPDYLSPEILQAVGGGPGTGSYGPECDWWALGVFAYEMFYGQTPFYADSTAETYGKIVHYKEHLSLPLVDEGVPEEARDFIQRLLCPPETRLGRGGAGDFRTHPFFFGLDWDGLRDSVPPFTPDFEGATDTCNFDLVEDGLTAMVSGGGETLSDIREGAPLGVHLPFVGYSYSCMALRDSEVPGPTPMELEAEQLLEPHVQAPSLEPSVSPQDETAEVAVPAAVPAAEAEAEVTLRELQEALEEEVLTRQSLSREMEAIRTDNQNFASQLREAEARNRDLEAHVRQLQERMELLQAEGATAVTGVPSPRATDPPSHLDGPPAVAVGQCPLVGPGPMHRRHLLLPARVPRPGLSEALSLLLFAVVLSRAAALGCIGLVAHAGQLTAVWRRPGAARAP
Sequence of LYN (P07948 whole entry): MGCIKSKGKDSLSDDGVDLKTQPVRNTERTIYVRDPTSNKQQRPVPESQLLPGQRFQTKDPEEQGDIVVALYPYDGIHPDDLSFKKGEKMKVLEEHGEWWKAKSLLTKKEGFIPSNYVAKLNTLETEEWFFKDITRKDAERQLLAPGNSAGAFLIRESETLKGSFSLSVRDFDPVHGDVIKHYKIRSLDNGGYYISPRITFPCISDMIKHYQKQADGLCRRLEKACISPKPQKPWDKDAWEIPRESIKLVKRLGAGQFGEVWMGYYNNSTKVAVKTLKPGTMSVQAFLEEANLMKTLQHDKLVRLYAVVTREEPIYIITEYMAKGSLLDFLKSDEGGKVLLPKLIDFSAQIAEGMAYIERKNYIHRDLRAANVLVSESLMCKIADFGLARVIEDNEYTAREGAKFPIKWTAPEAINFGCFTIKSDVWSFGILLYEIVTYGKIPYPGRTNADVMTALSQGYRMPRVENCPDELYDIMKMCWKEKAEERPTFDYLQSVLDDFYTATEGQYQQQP
Sequence of NEK7 (Q8TDX7 whole entry): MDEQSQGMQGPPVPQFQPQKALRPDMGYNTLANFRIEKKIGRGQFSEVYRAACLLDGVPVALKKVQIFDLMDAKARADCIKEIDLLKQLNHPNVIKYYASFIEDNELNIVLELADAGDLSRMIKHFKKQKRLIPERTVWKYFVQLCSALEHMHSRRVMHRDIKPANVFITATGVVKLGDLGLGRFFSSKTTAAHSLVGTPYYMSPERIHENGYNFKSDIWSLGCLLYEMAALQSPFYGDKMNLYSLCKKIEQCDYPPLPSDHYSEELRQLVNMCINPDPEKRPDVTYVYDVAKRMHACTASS
Sequence of PIM-1 (P11309 whole entry): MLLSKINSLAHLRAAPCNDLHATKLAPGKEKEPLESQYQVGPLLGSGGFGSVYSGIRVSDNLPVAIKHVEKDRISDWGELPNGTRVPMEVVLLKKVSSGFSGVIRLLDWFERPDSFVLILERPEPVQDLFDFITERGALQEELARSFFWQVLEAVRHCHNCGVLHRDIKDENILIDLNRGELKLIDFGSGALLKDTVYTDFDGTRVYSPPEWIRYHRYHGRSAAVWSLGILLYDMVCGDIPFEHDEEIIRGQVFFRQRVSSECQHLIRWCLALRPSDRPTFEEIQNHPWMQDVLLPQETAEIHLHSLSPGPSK

COC1CN(C(=O)c2ccc3c(N)ncc(-c4ccc(-c5cnn(C)c5)cc4)c3n2)C1 [Compound 51]
percentage effect (EPHB1): 13% | percentage effect (PI3K GAMMA): -18% | percentage effect (HCK): -6% | percentage effect (MRCKALPHA): 2% | percentage effect (MLK1): -3% | percentage effect (MINK): -11% | percentage effect (PIM-1): -10% | percentage effect (CDK1/CYCLINB): 1% | percentage effect (VRK2): 4% | percentage effect (ALK): -20% | percentage effect (CK1GAMMA3): -18% | percentage effect (MSK1): -2% | percentage effect (LOK): 3% | percentage effect (PKCBII): -4% | percentage effect (SGK): 14% | percentage effect (CDK3/CYCLINE): 4% | percentage effect (BRK): 10% | percentage effect (PASK): -8% | percentage effect (HASPIN): -7% | percentage effect (TSSK1): 5% | percentage effect (FGFR3): 7% | percentage effect (ARK5): 2% | percentage effect (PKBALPHA): -11% | percentage effect (CK2ALPHA2): 0% | percentage effect (SIK): -3% | percentage effect (MST2): -5% | percentage effect (IGF-1R, ACTIVATED): -18% | percentage effect (ROS): 14% | percentage effect (WNK2): 18% | percentage effect (PKCETA): 5% | percentage effect (NEK7): -6% | percentage effect (JNK3): -33% | percentage effect (DMPK): 7% | percentage effect (PDK1): -8% | percentage effect (LCK): 2% | percentage effect (DAPK2): 5% | percentage effect (MTOR): -12% | percentage effect (CRAF): -20% | percentage effect (IRAK4): -9% | percentage effect (RSE): 17% | percentage effect (LYN): -1% | percentage effect (ACK1): 0% | percentage effect (DCAMKL2): 0% | percentage effect (CDK5/P25): 3%

COC1CN(C(=O)c2ccc3c(N)ncc(-c4ccc(-c5cnn(C)c5)cc4)c3c2)C1 [Compound 59]
percentage effect (EPHB1): -44% | percentage effect (PI3K GAMMA): -7% | percentage effect (HCK): -3% | percentage effect (MRCKALPHA): 0% | percentage effect (MLK1): -30% | percentage effect (MINK): -13% | percentage effect (PIM-1): -13% | percentage effect (CDK1/CYCLINB): -5% | percentage effect (VRK2): -3% | percentage effect (ALK): -30% | percentage effect (CK1GAMMA3): 19% | percentage effect (MSK1): 0% | percentage effect (LOK): 1% | percentage effect (PKCBII): -3% | percentage effect (SGK): 14% | percentage effect (CDK3/CYCLINE): -5% | percentage effect (BRK): 5% | percentage effect (PASK): -4% | percentage effect (HASPIN): -12% | percentage effect (TSSK1): -14% | percentage effect (FGFR3): -4% | percentage effect (ARK5): -14% | percentage effect (PKBALPHA): 4% | percentage effect (CK2ALPHA2): 13% | percentage effect (SIK): -5% | percentage effect (MST2): -14% | percentage effect (IGF-1R, ACTIVATED): -10% | percentage effect (ROS): -4% | percentage effect (WNK2): -3% | percentage effect (PKCETA): -4% | percentage effect (NEK7): -26% | percentage effect (JNK3): -8% | percentage effect (DMPK): -11% | percentage effect (PDK1): -10% | percentage effect (LCK): -18% | percentage effect (DAPK2): 12% | percentage effect (MTOR): -5% | percentage effect (CRAF): 0% | percentage effect (IRAK4): 1% | percentage effect (RSE): -6% | percentage effect (LYN): 0% | percentage effect (ACK1): -10% | percentage effect (DCAMKL2): 0% | percentage effect (CDK5/P25): 11%
